Experimental data as given in patent US12371430B2, “5-morpholin-4-yl-pyrazolo[4,3-b]pyridine derivatives” (Merck Patent GmbH, priority 2018, dated 2025).

Tests used:
[1] = target: ATR/ATRIP (Homo sapiens (Human), UniProt Q13535); test: ATR/ATRIP kinase assay (TR-FRET, p53 Ser15 phosphorylation); type: biochemical; conditions: 0.5 μM ATP, 50 nM p53
Description: ATR/ATRIP Kinase Assay—Measurement of ATR/ATRIP Inhibition
The IC50 value was determined by an ATR/ATRIP enzymatic assay. The assay comprises two steps: the enzymatic reaction and the detection step. First, a mixture of ATR/ATRIP protein (Ataxia Telangiectasia and Rad3-related protein/ATR interacting protein), the compound in question at different concentrations, p53 as substrate protein and adenosine triphosphate (ATP) are incubated in assay buffer. ATR phosporylates p53 at Ser15 and other residues. The amount of phosphorylated p53 is then detected using specific antibodies and the TR-FRET assay technology.
In detail: The ATR/ATRIP enzymatic assay is performed as a TR-FRET-(HTRF™, Cisbio Bioassays) based 384-well assay. In a first step, purified human recombinant ATR/ATRIP (human ATR, full length, GenBank ID: NM_001184.3, and human ATRIP, full length, GenBank ID AF451323.1, co-expressed in a mammalian cell line) is incubated in assay buffer for 15 minutes at 22° C. with test compound at different concentrations or without test compound (as a negative control). The assay buffer contains 25 mM HEPES pH 8.0, 10 mM Mg(CH3COO)2, 1 mM MnCl2, 0.1% BSA, 0.01% Brij® 35, and 5 mM dithiothreitol (DTT). An Echo 555 (Labcyte) is used for dispensing of compound solutions. Then, in a second step, purified human recombinant cmyc-tagged p53 (human p53, full length, GenBank ID: BC003596, expressed in Sf21 insect cells) and ATP are added and the reaction mixture is incubated for 25-35 minutes, typically 25 minutes, at 22° C. The pharmacologically relevant assay volume is 5 μl. The final concentrations in the assay during incubation of the reaction mixture are 0.3-0.5 nM, typically 0.3 nM, ATR/ATRIP, 50 nM p53, and 0.5 μM ATP. The enzymatic reaction is stopped by the addition of EDTA. The generation of phosphorylated p53 as a result of the ATR mediated reaction in the presence of ATP is detected by using specific antibodies [labeled with the fluorophores europium (Eu) as donor and d2 as acceptor (Cisbio Bioassays)] enabling FRET. For this purpose, 2 μl of antibody-containing stop solution (12.5 mM HEPES pH 8.0, 125 mM EDTA, 30 mM sodium chloride, 300 mM potassium fluoride, 0.006% Tween-20, 0.005% Brij® 35, 0.21 nM anti-phospho-p53(Ser15)-Eu antibody, 15 nM anti-cmyc-d2 antibody) are added to the reaction mixture. Following signal development for 2 h the plates are analyzed in an EnVision (PerkinElmer) microplate reader using the TRF mode with laser excitation. Upon excitation of the donor europium at 340 nm the emitted fluorescence light of the acceptor d2 at 665 nm as well as from the donor Eu at 615 nm are measured. The amount of phosphorylated p53 is directly proportional to the ratio of the amounts of emitted light i.e. the ratio of the relative fluorescence units (rfu) at 665 nm and 615 nm. Data are processed employing the Genedata Screener software. In particular, IC50 values are determined in the usual manner by fitting a dose-response curve to the data points using nonlinear regression analysis. • IC50=half maximal inhibitory concentration • ATP=Adenosine triphosphate • TR-FRET=Time-Resolved Fluorescence Resonance Energy Transfer • HTRF®=Homogeneous Time Resolved Fluorescence • HEPES=2-(4-(2-Hydroxyethyl)-1-piperazinyl)-ethanesulfonic acid • Mg(CH3COO)2=Magnesium acetate • MnCl2=Manganese(II)-chloride • BSA=Bovine Serum Albumin • EDTA=Ethylendiamine Tetraacetate • TRF=Time Resolved Fluorescence pCHK1 Cellular Assay

[2] = test system: phosphorylation of Chk1 (Ser 345) in HT29 colon adenocarcinoma cells; test: pCHK1 cellular assay; type: cell-based; conditions: Homo sapiens, HT-29, hydroxyurea 3 mM, 4 h
In short: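 HT29 cells plated ≥20 h, then compound (1 nM–30 μM final) with hydroxyurea (3 mM final) added together for 4 h at 37 °C. After MeOH/Triton fixation-permeabilisation, anti-pChk1 immunostaining plus nuclear stain; nuclear pChk1 imaged by confocal high content reader, reported as % positive nuclei.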

Chain of ATR/ATRIP (Q13535 whole entry): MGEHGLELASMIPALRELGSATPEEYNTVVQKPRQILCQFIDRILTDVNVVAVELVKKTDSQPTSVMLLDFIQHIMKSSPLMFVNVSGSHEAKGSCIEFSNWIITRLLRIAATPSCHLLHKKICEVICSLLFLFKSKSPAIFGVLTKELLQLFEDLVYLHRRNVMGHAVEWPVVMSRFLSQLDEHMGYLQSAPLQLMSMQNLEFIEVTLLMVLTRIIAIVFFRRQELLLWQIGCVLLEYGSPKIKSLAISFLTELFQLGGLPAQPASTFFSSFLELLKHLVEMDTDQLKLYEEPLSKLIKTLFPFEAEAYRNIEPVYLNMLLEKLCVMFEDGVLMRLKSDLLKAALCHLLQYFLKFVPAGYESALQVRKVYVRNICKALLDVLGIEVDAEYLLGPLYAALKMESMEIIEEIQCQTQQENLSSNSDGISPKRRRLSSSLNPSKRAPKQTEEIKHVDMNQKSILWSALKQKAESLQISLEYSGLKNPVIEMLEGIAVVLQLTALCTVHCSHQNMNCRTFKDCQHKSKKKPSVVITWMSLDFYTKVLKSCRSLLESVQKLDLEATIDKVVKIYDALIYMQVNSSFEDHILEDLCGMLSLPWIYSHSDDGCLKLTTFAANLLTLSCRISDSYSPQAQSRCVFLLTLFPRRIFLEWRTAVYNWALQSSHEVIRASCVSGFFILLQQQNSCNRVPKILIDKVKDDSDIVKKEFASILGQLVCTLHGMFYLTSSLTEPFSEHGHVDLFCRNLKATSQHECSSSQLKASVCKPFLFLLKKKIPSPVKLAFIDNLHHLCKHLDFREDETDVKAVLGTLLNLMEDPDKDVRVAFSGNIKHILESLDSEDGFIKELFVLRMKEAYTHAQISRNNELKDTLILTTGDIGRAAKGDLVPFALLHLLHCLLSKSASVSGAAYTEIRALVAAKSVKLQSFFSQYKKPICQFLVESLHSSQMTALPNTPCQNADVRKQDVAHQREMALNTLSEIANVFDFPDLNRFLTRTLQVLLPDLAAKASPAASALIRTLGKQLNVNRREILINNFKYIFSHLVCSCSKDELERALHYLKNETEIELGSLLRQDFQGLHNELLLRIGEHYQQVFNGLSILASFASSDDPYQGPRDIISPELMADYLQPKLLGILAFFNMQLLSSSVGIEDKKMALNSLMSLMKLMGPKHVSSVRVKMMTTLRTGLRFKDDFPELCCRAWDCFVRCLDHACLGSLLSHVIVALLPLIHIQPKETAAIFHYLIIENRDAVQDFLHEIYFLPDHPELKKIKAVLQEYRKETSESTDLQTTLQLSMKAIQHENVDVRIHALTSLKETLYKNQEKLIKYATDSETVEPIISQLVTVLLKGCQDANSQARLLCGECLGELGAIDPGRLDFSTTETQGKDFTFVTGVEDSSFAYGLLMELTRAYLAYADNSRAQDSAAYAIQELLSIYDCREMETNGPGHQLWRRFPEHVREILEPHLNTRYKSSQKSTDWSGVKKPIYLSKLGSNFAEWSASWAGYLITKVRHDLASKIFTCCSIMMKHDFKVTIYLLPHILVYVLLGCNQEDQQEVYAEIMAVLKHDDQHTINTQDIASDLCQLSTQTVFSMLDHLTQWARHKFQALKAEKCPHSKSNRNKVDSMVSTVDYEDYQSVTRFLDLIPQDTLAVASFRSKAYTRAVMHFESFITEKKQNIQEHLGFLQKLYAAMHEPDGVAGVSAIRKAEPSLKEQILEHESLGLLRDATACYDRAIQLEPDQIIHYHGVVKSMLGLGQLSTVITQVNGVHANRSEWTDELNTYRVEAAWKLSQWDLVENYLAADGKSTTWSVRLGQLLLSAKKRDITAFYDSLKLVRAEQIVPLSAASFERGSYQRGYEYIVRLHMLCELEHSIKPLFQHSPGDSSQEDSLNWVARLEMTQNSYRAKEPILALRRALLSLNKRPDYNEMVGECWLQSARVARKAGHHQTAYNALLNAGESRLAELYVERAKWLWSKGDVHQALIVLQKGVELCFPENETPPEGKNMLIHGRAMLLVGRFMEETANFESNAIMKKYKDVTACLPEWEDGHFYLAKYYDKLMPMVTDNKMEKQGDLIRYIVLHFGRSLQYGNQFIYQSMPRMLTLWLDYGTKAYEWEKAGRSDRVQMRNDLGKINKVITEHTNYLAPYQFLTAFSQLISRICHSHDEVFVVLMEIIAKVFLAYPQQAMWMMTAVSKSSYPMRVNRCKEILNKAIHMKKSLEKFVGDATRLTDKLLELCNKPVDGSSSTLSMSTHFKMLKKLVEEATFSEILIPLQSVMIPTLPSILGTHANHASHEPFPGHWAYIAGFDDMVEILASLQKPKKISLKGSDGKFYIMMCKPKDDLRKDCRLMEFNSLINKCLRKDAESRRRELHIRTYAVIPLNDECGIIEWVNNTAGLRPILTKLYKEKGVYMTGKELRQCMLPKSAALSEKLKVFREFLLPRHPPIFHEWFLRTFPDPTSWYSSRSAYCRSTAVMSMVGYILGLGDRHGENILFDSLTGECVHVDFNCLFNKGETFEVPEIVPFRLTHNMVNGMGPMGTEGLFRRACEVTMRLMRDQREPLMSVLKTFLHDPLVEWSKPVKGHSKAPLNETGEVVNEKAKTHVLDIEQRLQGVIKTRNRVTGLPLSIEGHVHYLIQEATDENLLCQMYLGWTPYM
Chain of ATR/ATRIP (Q8WXE1 whole entry partner): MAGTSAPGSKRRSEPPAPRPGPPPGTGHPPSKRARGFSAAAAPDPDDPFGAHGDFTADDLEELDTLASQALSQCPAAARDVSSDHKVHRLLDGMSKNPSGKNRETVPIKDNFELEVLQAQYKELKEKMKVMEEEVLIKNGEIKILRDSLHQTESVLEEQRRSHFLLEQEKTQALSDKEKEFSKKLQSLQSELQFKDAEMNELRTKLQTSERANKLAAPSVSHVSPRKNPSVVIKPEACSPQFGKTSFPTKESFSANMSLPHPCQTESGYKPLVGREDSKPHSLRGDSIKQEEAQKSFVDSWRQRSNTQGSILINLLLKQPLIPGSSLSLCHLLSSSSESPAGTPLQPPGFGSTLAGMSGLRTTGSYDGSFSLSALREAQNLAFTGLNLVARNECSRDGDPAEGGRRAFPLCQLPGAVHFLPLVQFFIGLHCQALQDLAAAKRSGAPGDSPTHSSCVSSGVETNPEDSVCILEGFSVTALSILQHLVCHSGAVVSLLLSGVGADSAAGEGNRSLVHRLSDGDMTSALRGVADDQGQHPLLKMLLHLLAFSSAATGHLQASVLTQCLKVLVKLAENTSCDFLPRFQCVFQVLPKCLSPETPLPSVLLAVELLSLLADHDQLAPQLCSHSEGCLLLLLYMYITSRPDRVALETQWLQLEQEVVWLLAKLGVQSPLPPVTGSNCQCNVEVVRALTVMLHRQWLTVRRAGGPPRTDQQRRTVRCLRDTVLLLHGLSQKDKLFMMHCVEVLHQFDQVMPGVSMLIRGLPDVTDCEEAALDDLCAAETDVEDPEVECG

Compound	IC50 [1] [nM]	IC50 [2] [nM]
C[C@@H]1COCCN1c1ccc2c(n1)c(-c1cc[nH]n1)nn2CCc1ccccc1 [Compound 64, 5-((R)-3-Methyl-morpholin-4-yl)-1-phenethyl-3-(1H-pyrazol-3-yl)-1H-pyrazolo[4,3-b]pyridine]	51	1000 to 10000
C[C@@H]1COCCN1c1cc(-c2ccc(C(F)(F)F)nc2)c2c(n1)c(-c1cc[nH]n1)nn2C [Compound 65, (3R)-3-Methyl-4-[1-methyl-3-(1H-pyrazol-3-yl)-7-[6-(trifluoro-methyl)pyridin-3-yl]-1H-pyrazolo[4,3-b]pyridin-5-yl]morpholine]	5.8	100 to 1000
CC(C)n1nc(-c2cc[nH]n2)c2nc(N3CCOC[C@H]3C)ccc21 [Compound 73, (3R)-3-Methyl-4-[1-(propan-2-yl)-3-(1H-pyrazol-3-yl)-1H-pyrazolo[4,3-b]pyridin-5-yl]morpholine]	28	100 to 1000
C[C@@H]1COCCN1c1ccc2c(n1)c(-c1cc[nH]n1)nn2CCc1ccncc1 [Compound 77, (3R)-3-Methyl-4-[3-(1H-pyrazol-3-yl)-1-[2-(pyridin-4-yl)ethyl]-1H-pyrazolo[4,3-b]pyridin-5-yl]morpholine]	58	1000 to 10000
C[C@@H]1COCCN1c1ccc2c(n1)c(-c1cc[nH]n1)nn2CC(C)(C)O [Compound 85, 2-Methyl-1-{5-[(3R)-3-methylmorpholin-4-yl]-3-(1H-pyrazol-3-yl)-1H-pyrazolo[4,3-b]pyridin-1-yl}propan-2-ol]	21	1000 to 10000
C[C@@H]1COCCN1c1ccc2c(n1)c(-c1cc[nH]n1)nn2C(C)(C)CO [Compound 86, 2-Methyl-2-{5-[(3R)-3-methylmorpholin-4-yl]-3-(1H-pyrazol-3-yl)-1H-pyrazolo[4,3-b]pyridin-1-yl}propan-1-ol]	24	1000 to 10000

Now from value to compound:

IC50 [1] [nM]	IC50 [2] [nM]	Compound
1.9	< 10	C[C@@H]1COCCN1c1cc(-c2cccnc2C(F)(F)F)c2c(n1)c(-c1cc[nH]n1)nn2C [Compound 66, (3R)-3-Methyl-4-[1-methyl-3-(1H-pyrazol-3-yl)-7-[2-(trifluoro-methyl)pyridin-3-yl]-1H-pyrazolo[4,3-b]pyridin-5-yl]morpholine]
21	100 to 1000	Cc1ccc(S(C)(=O)=O)cc1-c1cc(N2CCOC[C@H]2C)nc2c(-c3ccn[nH]3)nn(C)c12 [Compound 75, (3R)-4-[7-(5-Methanesulfonyl-2-methylphenyl)-1-methyl-3-(1H-pyrazol-5-yl)-1H-pyrazolo[4,3-b]pyridin-5-yl]-3-methylmorpholine]
28	100 to 1000	C[C@@H]1COCCN1c1cc(-c2cccc(S(C)(=O)=O)c2)c2c(n1)c(-c1ccn[nH]1)nn2C [Compound 76, (3R)-4-[7-(3-Methanesulfonylphenyl)-1-methyl-3-(1H-pyrazol-5-yl)-1H-pyrazolo[4,3-b]pyridin-5-yl]-3-methylmorpholine]
3	100 to 1000	C[C@@H]1COCCN1c1cc(C2=CCS(=O)(=O)CC2)c2c(n1)c(-c1ccn[nH]1)nn2C [Compound 81, 4-[1-Methyl-5-[(3R)-3-methylmorpholin-4-yl]-3-(1H-pyrazol-5-yl)-1H-pyrazolo[4,3-b]pyridin-7-yl]-3,6-dihydro-2H-1lambda6-thiopyran-1,1-dione]
0.4	10 to 100	Cc1ncncc1-c1cc(N2CCOC[C@H]2C)nc2c(-c3cc[nH]n3)nn(C)c12 [Compound 87, (3R)-3-Methyl-4-[1-methyl-7-(4-methylpyrimidin-5-yl)-3-(1H-pyrazol-3-yl)-1H-pyrazolo[4,3-b]pyridin-5-yl]morpholine]
0.9	1000 to 10000	CC(c1cc(N2CCOC[C@H]2C)nc2c(-c3cc[nH]n3)nn(C)c12)S(C)(=O)=O (stereo partly drawn) [Compound 89, (3R)-4-[7-(1-Methanesulfonylethyl)-1-methyl-3-(1H-pyrazol-3-yl)-1H-pyrazolo[4,3-b]pyridin-5-yl]-3-methylmorpholine]
